Data reported in patent publication US6461997B1, “Triazole sulfones having herbicidal activity” (Monsanto Technology LLC, priority 1999, dated 2002).

What was measured:
ABUTH (velvetleaf) = assay: Pre-plant incorporated (PPI) herbicidal activity, warm season; format: in vivo, Abutilon theophrasti; conditions: for Percent inhibition ABUTH / inhibition at 10 g/ha / inhibition at 30 g/ha / inhibition at 100 g/ha / inhibition at 300 g/ha / inhibition at 900 g/ha: PPI application; for PPI activity (GR80) ABUTH: pre-plant incorporated, GR80 = lowest tested rate with 80% or greater inhibition, approx. 14 days after treating, 30/21° C.; for inhibition at 10 g/ha / inhibition at 30 g/ha / inhibition at 100 g/ha / inhibition at 300 g/ha / inhibition at 900 g/ha: Abutilon theophrasti, read-out: Percent inhibition ABUTH
Protocol: (§1) In another set of tests, the pre-plant incorporated (PPI) activity of compounds of this invention was evaluated on the same species as for the pre-emergence tests described above. In the PPI tests the following procedure, designed to simulate PPI application, was used.
(§2) A pre-prepared topsoil mixture (described above) was placed in a pot and compacted to a depth of 1.0 to 1.25 cm from the top of the pot. Seeds of each of several monocotyledonous and dicotyledonous annual plant species were placed on top of the soil. A sufficient quantity of soil to cover the seeds and level fill the pot was weighed into an open container. A known amount of the test compound was dissolved or suspended in an organic solvent and applied by spraying to this cover soil. The cover soil was thoroughly mixed to distribute the test compound throughout the cover soil, and was then applied as a cover layer over the seeds. Untreated soil was used as a cover layer for control pots. After treatment the plants were placed in a greenhouse where they received 0.64 cm of overhead irrigation. All subsequent watering consisted of a light overhead mist and/or subirrigation as needed for germination and growth. Tables 9 and 10 below relate to warm season plant species which were placed after pre-emergence treatment in a greenhouse with a 30/21° C. day/night temperature regime. Tables 11 and 12 below relates to cool season plant species placed after pre-emergence treatment in a greenhouse or growth chamber with an 18/13° C. day/night temperature regime. Only the compounds of Examples 1, 6, 8, 11, 13 and 15-20 were included in PPI tests.
(§3) Approximately 14 days after planting and treating, the plants were observed and herbicidal efficacy recorded as percent inhibition by comparison with untreated plants.

LOLMG (annual ryegrass) = assay: Post-emergence herbicidal activity, cool season; format: in vivo, Lolium multiflorum; conditions: abraded plants sprayed at 300, 100, 30 and 10 g/ha; about 14 days after treatment
Procedure, shortened: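 Seedlings grown from seed in topsoil pots were treated 9 to 14 days after planting, foliage first abraded with garnet particles, then sprayed with test compound in 50:50 acetone/water at 300, 100, 30 and 10 g/ha (3,100 l/ha). Kept at 18/13° C. day/night, percent inhibition versus abraded unsprayed controls was scored about 14 days later and GR80 assigned.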

AVEFA (wild oat) = assay: Pre-plant incorporated (PPI) herbicidal activity, cool season; format: in vivo, Avena fatua; conditions: for PPI activity GR80, AVEFA: pre-plant incorporated, lowest tested rate with 80% or greater inhibition, about 14 days
Protocol: as §1, §2, §3

BROTE (downy brome) = assay: as above; format: in vivo, Bromus tectorum; conditions: for PPI activity GR80, BROTE: pre-plant incorporated, lowest tested rate with 80% or greater inhibition, about 14 days
Protocol: as §1, §2, §3

AMARE (redroot pigweed) = assay: Pre-plant incorporated (PPI) herbicidal activity, warm season; format: in vivo, Amaranthus retroflexus; conditions: for Percent inhibition AMARE / inhibition at 10 g/ha / inhibition at 30 g/ha / inhibition at 100 g/ha / inhibition at 300 g/ha / inhibition at 900 g/ha: PPI application; for PPI activity (GR80) AMARE: pre-plant incorporated, GR80 = lowest tested rate with 80% or greater inhibition, approx. 14 days after treating, 30/21° C.; for inhibition at 10 g/ha / inhibition at 30 g/ha / inhibition at 100 g/ha / inhibition at 300 g/ha / inhibition at 900 g/ha: Amaranthus retroflexus, read-out: Percent inhibition AMARE
Protocol: as §1, §2, §3

PANDI (fall panicum) = assay: Pre-emergence herbicidal activity, warm season; format: in vivo, Panicum dichotomiflorum; conditions: GR80 = lowest tested rate (300, 100, 30, 10 g/ha) with 80% or greater inhibition; approx. 14 days after treating; 30/21° C.
Procedure, shortened: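 Seeds sown in sterilised fertilised topsoil received surface-applied compound in 50:50 acetone/water, typically at 300, 100, 30 and 10 g/ha, then greenhouse-grown at 30/21° C (warm-season species) or 18/13° C (cool-season species). Percent inhibition versus untreated plants was scored at about 14 days, giving GR80; an asterisk marks activity short of 80% at the top rate.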

[1] = system: PANMI (wild proso millet); assay: Pre-emergence herbicidal activity, warm season; format: in vivo, Panicum miliaceum; conditions: for Pre-emergence activity (GR80) PANMI: GR80 = lowest tested rate (300, 100, 30, 10 g/ha) with 80% or greater inhibition, approx. 14 days after treating, 30/21° C.
Procedure, shortened: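 Herbicidal efficacy was judged visually as percent inhibition compared with untreated plants some 14 days after treatment, giving GR80 over doses of 10 to 300 g/ha. Proso millet and crabgrass grew at 30/21 °C; blackgrass and wild buckwheat grew at 18/13 °C.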

[2] = weed, PPI application, 100 g/ha
[3] = weed, PPI application, 300 g/ha
[4] = weed, PPI application, 900 g/ha

SMILES | Percent inhibition ABUTH (ABUTH (velvetleaf); 10 g/ha) [%] | Percent inhibition ABUTH (ABUTH (velvetleaf); 30 g/ha) [%] | Percent inhibition ABUTH (ABUTH (velvetleaf); 100 g/ha) [%] | Percent inhibition ABUTH (ABUTH (velvetleaf); 300 g/ha) [%] | Percent inhibition ABUTH (ABUTH (velvetleaf); 900 g/ha) [%] | PPI activity (GR80) ABUTH (ABUTH (velvetleaf)) [g/ha] | Post-emergence activity GR80, LOLMG (LOLMG (annual ryegrass)) | PPI activity GR80, AVEFA (AVEFA (wild oat)) | Percent inhibition AVEFA (AVEFA (wild oat); weed, PPI application, 10 g/ha) [%] | Percent inhibition AVEFA (AVEFA (wild oat); weed, PPI application, 30 g/ha) [%] | Percent inhibition AVEFA (AVEFA (wild oat); [2]) [%] | Percent inhibition AVEFA (AVEFA (wild oat); [3]) [%] | Percent inhibition AVEFA (AVEFA (wild oat); [4]) [%] | PPI activity GR80, BROTE (BROTE (downy brome)) | Percent inhibition BROTE (BROTE (downy brome); weed, PPI application, 10 g/ha) [%] | Percent inhibition BROTE (BROTE (downy brome); weed, PPI application, 30 g/ha) [%] | Percent inhibition BROTE (BROTE (downy brome); [2]) [%] | PPI activity (GR80) AMARE (AMARE (redroot pigweed)) [g/ha] | Pre-emergence activity (GR80) PANDI (PANDI (fall panicum)) [g/ha] | Pre-emergence activity (GR80) PANMI [1] [g/ha] | other results
CCN(CC)C(=O)n1cnc(S(=O)(=O)C(F)(F)SCCOC)n1 [Example 13] | 0 | 0 | 0 | 20 | 85 | 100 | [empty] | [empty] | 0 | 0 | 0 | 50 | 90 | * (activity observed, at least at highest rate, but <80% inhibition) | 0 | 0 | 10 | 100 | 300 | 300 | Percent inhibition BROTE (BROTE (downy brome); [3]): 20%; Percent inhibition BROTE (BROTE (downy brome); [4]): 85%; Percent inhibition AMARE (AMARE (redroot pigweed); 10 g/ha): 0%; Percent inhibition AMARE (AMARE (redroot pigweed); 30 g/ha): 90%; Percent inhibition AMARE (AMARE (redroot pigweed); 100 g/ha): 70%; Percent inhibition AMARE (AMARE (redroot pigweed); 300 g/ha): 100%; Percent inhibition AMARE (AMARE (redroot pigweed); 900 g/ha): 100%
CCN(CC)C(=O)n1cnc(S(=O)(=O)C(F)F)n1 [Example 15, 1-(N,N-diethylcarbamoyl)-3-(difluoromethylsulfonyl)-1,2,4-triazole] |  |  |  |  |  | 100 | [empty] | 300 g/ha |  |  |  |  |  | * (activity observed, at least at highest rate, but <80% inhibition) |  |  |  | 100 | 100 | 30 | inhibition at 10 g/ha (ABUTH (velvetleaf); 10 g/ha): 0%; inhibition at 30 g/ha (ABUTH (velvetleaf); 30 g/ha): 0%; inhibition at 100 g/ha (ABUTH (velvetleaf); 100 g/ha): 20%; inhibition at 300 g/ha (ABUTH (velvetleaf); 300 g/ha): 50%; inhibition at 900 g/ha (ABUTH (velvetleaf); 900 g/ha): 40%; inhibition at 10 g/ha (AMARE (redroot pigweed); 10 g/ha): 20%; inhibition at 30 g/ha (AMARE (redroot pigweed); 30 g/ha): 100%; inhibition at 100 g/ha (AMARE (redroot pigweed); 100 g/ha): 80%; inhibition at 300 g/ha (AMARE (redroot pigweed); 300 g/ha): 100%; inhibition at 900 g/ha (AMARE (redroot pigweed); 900 g/ha): 100%; inhibition at 10 g/ha ([1]; Panicum miliaceum, pre-emergence application, 10 g/ha, read-out: Percent inhibition, weed PANMI): 0%; inhibition at 30 g/ha ([1]; Panicum miliaceum, pre-emergence application, 30 g/ha, read-out: Percent inhibition, weed PANMI): 0%; inhibition at 100 g/ha ([1]; Panicum miliaceum, pre-emergence application, 100 g/ha, read-out: Percent inhibition, weed PANMI): 20%; inhibition at 300 g/ha ([1]; Panicum miliaceum, pre-emergence application, 300 g/ha, read-out: Percent inhibition, weed PANMI): 40%; inhibition at 900 g/ha ([1]; Panicum miliaceum, pre-emergence application, 900 g/ha, read-out: Percent inhibition, weed PANMI): 99%
C=CCC(F)(F)S(=O)(=O)c1ncn(C(=O)N(CC)CC)n1 [Example 17, 1-(N,N-diethylcarbamoyl)-3-[(1,1-difluoro-3-butenyl)sulfonyl]-1,2,4-triazole] |  |  |  |  |  | 100 | [empty] | 100 g/ha |  |  |  |  |  | 100 g/ha |  |  |  | 10 | 100 | 100 | inhibition at 10 g/ha (ABUTH (velvetleaf); 10 g/ha): 0%; inhibition at 30 g/ha (ABUTH (velvetleaf); 30 g/ha): 0%; inhibition at 100 g/ha (ABUTH (velvetleaf); 100 g/ha): 0%; inhibition at 300 g/ha (ABUTH (velvetleaf); 300 g/ha): 40%; inhibition at 900 g/ha (ABUTH (velvetleaf); 900 g/ha): 100%; inhibition at 10 g/ha (AVEFA (wild oat); Avena fatua, weed, PPI application, 10 g/ha, read-out: Percent inhibition AVEFA): 0%; inhibition at 30 g/ha (AVEFA (wild oat); Avena fatua, weed, PPI application, 30 g/ha, read-out: Percent inhibition AVEFA): 15%; inhibition at 100 g/ha (AVEFA (wild oat); Avena fatua, weed, PPI application, 100 g/ha, read-out: Percent inhibition AVEFA): 50%; inhibition at 300 g/ha (AVEFA (wild oat); Avena fatua, weed, PPI application, 300 g/ha, read-out: Percent inhibition AVEFA): 75%; inhibition at 900 g/ha (AVEFA (wild oat); Avena fatua, weed, PPI application, 900 g/ha, read-out: Percent inhibition AVEFA): 100%; inhibition at 10 g/ha (BROTE (downy brome); Bromus tectorum, weed, PPI application, 10 g/ha, read-out: Percent inhibition BROTE): 0%; inhibition at 30 g/ha (BROTE (downy brome); Bromus tectorum, weed, PPI application, 30 g/ha, read-out: Percent inhibition BROTE): 0%; inhibition at 100 g/ha (BROTE (downy brome); Bromus tectorum, weed, PPI application, 100 g/ha, read-out: Percent inhibition BROTE): 20%; inhibition at 300 g/ha (BROTE (downy brome); Bromus tectorum, weed, PPI application, 300 g/ha, read-out: Percent inhibition BROTE): 30%; inhibition at 900 g/ha (BROTE (downy brome); Bromus tectorum, weed, PPI application, 900 g/ha, read-out: Percent inhibition BROTE): 95%; inhibition at 10 g/ha (AMARE (redroot pigweed); 10 g/ha): 60%; inhibition at 30 g/ha (AMARE (redroot pigweed); 30 g/ha): 95%; inhibition at 100 g/ha (AMARE (redroot pigweed); 100 g/ha): 100%; inhibition at 300 g/ha (AMARE (redroot pigweed); 300 g/ha): 100%; inhibition at 900 g/ha (AMARE (redroot pigweed); 900 g/ha): 100%
C=C(CC(F)(F)S(=O)(=O)c1ncn(C(=O)N(CC)CC)n1)C[Si](C)(C)C [Example 20] | 0 | 0 | 0 | 30 | 80 | 300 | [empty] | 300 g/ha | 0 | 0 | 0 | 0 | 60 | 300 g/ha | 0 | 0 | 0 | 300 | 300 | 100 | Percent inhibition BROTE (BROTE (downy brome); [3]): 40%; Percent inhibition BROTE (BROTE (downy brome); [4]): 50%; Percent inhibition AMARE (AMARE (redroot pigweed); 10 g/ha): 0%; Percent inhibition AMARE (AMARE (redroot pigweed); 30 g/ha): 0%; Percent inhibition AMARE (AMARE (redroot pigweed); 100 g/ha): 50%; Percent inhibition AMARE (AMARE (redroot pigweed); 300 g/ha): 100%; Percent inhibition AMARE (AMARE (redroot pigweed); 900 g/ha): 100%
